Patent publication US11426402B2, “IRE1 activating compounds for use in therapy” (The Scripps Research Institute, priority 2019, dated 2022)

What was measured:
DNAJB9 = DNAJB9 expression in SHSY5Y cells overexpressing APP SW; assay type: cell-based
SHSY5Y cells = assay: CellTiterGlo ATP levels in SHSY5Y cells overexpressing APP SW; assay type: cell-based; details: APP SW overexpressing cells cultured in galactose, 10 μM, 72 hours
Protocol: FIGS. 6A-6C. Histograms showing TMRE staining of SH-SY5Y cells transiently expressing empty vector (Mock) or Swedish mutant APP in the presence or absence of 474 (10 μM) for 72 hours (FIG. 6A). Quantification of TMRE staining in (A). Error bars represent SEM for n=3 replicates. Statistics calculated from one-tailed Student's t-test. *p<0.05, **p<0.01, ***p<0.001 (FIG. 613). Graph showing relative luminescence from CellTiterGlo assay of SH-SY5Y cells transiently expressing empty vector or Swedish mutant APP cultured in galactose media for 72 hours in the presence or absence of IRE1 activator 474 (10 μM). Error bars represent SEM for n=3 replicates. Statistics calculated from one-tailed Student's t-test. *p<0.05, **p<0.01, ***p<0.001 (FIG. 6C).
For determination of relative cellular ATP levels, SHSY5Y cells were seeded into flat black, poly-D-lysine coated 96-well plates (Corning). […] Luminescence was then measured in an Infinite F200 PRO plate reader (Tecan and corrected for background signal. All measurements were performed in biologic triplicate.
Mitochondrial depolarization decreases the capacity for cells to produce ATP through oxidative phosphorylation at the inner mitochondrial membrane. […] Accordingly, ATP levels were monitored in SHSY5Y cells overexpressing APP^SW and incubated in media that was supplemented with glucose or galactose. […]

[1] = tested on: IRE1-specific target genes; assay: RT-PCR of Xbp1s and Erdj4 in adipose tissue after single IP dose; assay type: in vivo
Description: (§1) FIGS. 7A-7D. RT-PCR of Xbp1s and the IRE1/XBP1s target gene Erdj4 from adipose tissue post single IP dose of 474 (FIG. 7A). Liver RNAseq profiles of ATF6, IRE1 and PERK target genes expressed as log 2 fold change of chronic 474 treatment compared to vehicle (FIG. 7B). Body weight (FIG. 7C) and food intake (FIG. 70) over 6 weeks of dosing.
Obesity has grown into a major public health crisis over the past few decades, enhancing the risk of numerous complications such as type 2 diabetes (T2D). […] of Xbp1, the key transcription factor downstream of IRE1, causes insulin resistance through increased accumulation of ER stress^33. Conversely, overexpression of active Xbp1s in the livers of ob/ob mice restores insulin signaling and reduces gluconeogenesis through the targeted degradation of a key metabolic regulator, FoxO1^55. IRE1 function is also critical in the maintenance of pancreatic β-cell function and glucose stimulated-insulin secretion^56. Although these genetic studies highlight the therapeutic potential of targeting the IRE1-XBP1s signaling axis for T2D and related metabolic disorders, no highly-selective pharmacological IRE1 activators have been available until the present disclosure's provision for screening and optimization of a lead molecule, 474.

IRE1 target genes = assay: Liver RNA sequencing of DIO mice, IRE1 targets; assay type: in vivo, mouse; details: once-daily IP 50 mg/kg, 6 weeks
Protocol: as §1
(§2) To test the efficacy of pharmacologic IRE1 activation in mitigating T2D, we chronically administered 474 by once-daily IP injections at 50 mg/kg for a period of 6 weeks to Diet-Induced Obese (DIO) mice, a model of T2D.

ATF6 target genes = assay: Liver RNA sequencing of DIO mice, ATF6 targets; assay type: in vivo, mouse; details: once-daily IP 50 mg/kg, 6 weeks
Protocol: as §1, §2

PERK target genes = assay: Liver RNA sequencing of DIO mice, PERK targets; assay type: in vivo, mouse; details: once-daily IP 50 mg/kg, 6 weeks
Protocol: as §1, §2

[2] = Toxicity, body weight and food intake in DIO mice; assay type: in vivo
Protocol: as §1, §2

[3] = tested on: Diet-Induced Obese (DIO) mice; assay: Glucose tolerance, serum glucose and insulin in DIO mice; assay type: in vivo, mouse; details: 4 weeks of dosing
Description: (§3) FIGS. 8A-8E. Oral glucose tolerance test in DIO mice treated with either Vehicle or 474 for 3 weeks (n=8) (FIG. 8A). Serum glucose and insulin levels post 4 weeks of dosing with 474 or vehicle (FIG. 8B). Glucose stimulated insulin secretion in islets isolated from 474 or vehicle treated mice. (FIG. 8C). Hepatic triglyceride content (FIG. 8D) and gene expression profiles of gluconeogenic genes (FIG. 8E) at 6 weeks post dosing.
as §2
(§4) This effect can be rationalized, at least in part, by enhanced pancreatic f-cell function in 474-treated […], as shown by our studies in isolated pancreatic islets from vehicle- and 474-treated mice. […] Given the well-documented link between IRE1 and hepatic metabolism in T2D^55, we also examined markers of liver function after 474 treatment. We found reduced liver triglyceride accumulation in 474-treated mice relative to controls (FIG. 80).

pancreatic islets = assay: Glucose stimulated insulin secretion in islets isolated from treated mice; assay type: in vivo, mouse; details: relative to vehicle-treated controls
Description: as §3, §4

liver = assay: Hepatic triglyceride content and gluconeogenic gene expression in DIO mice; assay type: in vivo, mouse; details: 6 weeks post dosing
Description: as §3, §4

## Cc1ccc(OCCN(C)C(=O)Cn2cc(NC(=O)CCOc3ccccc3)cn2)cc1 [Compound 474]
DNAJB9
  DNAJB9 expression: further increased
SHSY5Y cells
  ATP levels: increased
[1]
  IRE1-specific target genes in adipose tissue: induction
  bioavailability: readily bioavailable
IRE1 target genes
  Xbp1 splicing in liver: robust Xbp1splicing
  downstream IRE1 targets in liver: selective activation
ATF6 target genes
  ATF6 transcriptional response in liver: modest induction
PERK target genes
  PERK target genes in liver: no induction
[2]; 6-week dosing period
  body weight and food intake: remaining similar in all groups
[2]; DIO mice, once-daily IP 50 mg/kg, 6 weeks
  toxicity: no evident toxicity
[3]
  basal insulin levels: more prominent decrease
  fasting glucose: significant reduction
Pancreatic islets
  insulin secretion from islets upon stimulation with glucose: dramatic increase
liver
  expression of genes associated with glucose metabolism in liver: reductions
liver; relative to controls
  liver triglyceride accumulation: reduced
